Data published in patent US6117841A, “Substituted peptidylamine calcium channel blockers” (Warner-Lambert Company, priority 1999, dated 2000).
Read-outs that look alike come from different tables or passages of the source.

Target: T1, N-type Ca^2+ Channel (Homo sapiens, UniProt Q00975)
T1 construct: host or cells: IMR-32 cells differentiated with dibutyryl cAMP and bromodeoxyuridine
Assay: Measurement of N-type Ca2+ channel blocking potencies in IMR-32 cells using the fluorescent Ca2+ indicator Indo-1
Format: cell-based
Settings: for IC50: read-out: IMR 32 IC50
Procedure: Measurement of N-type Ca^2+ Channel Blocking Potencies of Compounds in IMR-32 Cells Using the Fluorescent Ca^2 + Indicator Indo-1
IMR-32 cells are a human tumoral cell line of neural origin. […] Calcium flux into these cells may be induced by stimulation with elevated potassium concentrations. The L-channel component of calcium flux may be blocked by adding 5 μM nitrendipine. The remaining component of calcium entry into the IMR-32 cells is due to calcium flux through N-type calcium channels. Intracellular calcium concentrations are measured using the fluorescent calcium indicator Indo-1. The effect of drug concentration on calcium uptake is studied.
The IMR-32 cell line was obtained from the American Type Culture Collection (Rockville, Md.). Cells were grown in Eagle's Minimum Essential Medium with Earle's salts supplemented with 10% fetal bovine serum, 2 mM L-Gln and antibiotic/antimycotic mixture (Gibco). At approximately 80% confluency, differentiation was induced by the addition of 1 mM dibutyryl cAMP and 2.5 μM bromodeoxyuridine to the medium. After 7 to 13 days of differentiation, cells were detached using 0.5 mM EDTA and loaded with 5 μM Indo-1 acetoxymethyl ester (Molecular Probes, Eugene, Oreg.) at 30° C. for 45 minutes. Loaded cells were washed twice, resuspended (~10^7 cells/mL) in assay buffer (10 mM HEPES/Tris pH 7.4 in Hank's Balanced Salt Solution without bicarbonate or phenol red containing 0.5% bovine serum albumin) and kept on ice until use. Fluorescence measurements were carried out in a Photon Technology International (PTI, South Brunswick, N.J.) Model RF-F3004 spectrofluorometer with dual emission monochromators using excitation at 350 nm and emission at 400 and 490 nm. The instrument was equipped with a thermostated cuvette holder with stirring capabilities as well as with a computer-controlled pump which allowed for reagent addition during measurement. Instrument control and data collection was done by PTI's OSCAR software running on an IBM compatible computer. Different concentrations of the test compounds (60 μL in dimethyl sulfoxide) were added to 5.94 mL of assay buffer containing approximately 3×10^6 loaded cells, and 5 μM nitrendipine (in 30 μL EtOH) to block L-type Ca^2+ channels. Samples were incubated for 10 minutes at 30° C. and then aliquoted into three 10×10 mm disposable acrylic cuvettes. Emission signals at 400 and 490 nm were acquired from each cuvette at 30° C. for 50 seconds. At 20 seconds after the start of reading, cells were depolarized by the addition of 160 μL of stimulation solution (1 M KCl, 68 mM CaCl2) to the cuvette via the computer-controlled pump. Ratio of dual emission signals (400 nm/ 490 nm), which is proportional to intracellular Ca^2+ concentration, was plotted against time, and the difference between maximal response after stimulation and basal value (before stimulation) was determined. Values obtained in this way were plotted as a function of drug concentration. IC50 values of test compounds were calculated by fitting a four-parameter logistic function to the data using the least squares method.

[1] = IMR-32 cells, 5 μM nitrendipine
[2] = IMR-32 cells, K+ depolarization, 5 μM nitrendipine to block L-type channels

T1 sequence (Q00975 whole entry): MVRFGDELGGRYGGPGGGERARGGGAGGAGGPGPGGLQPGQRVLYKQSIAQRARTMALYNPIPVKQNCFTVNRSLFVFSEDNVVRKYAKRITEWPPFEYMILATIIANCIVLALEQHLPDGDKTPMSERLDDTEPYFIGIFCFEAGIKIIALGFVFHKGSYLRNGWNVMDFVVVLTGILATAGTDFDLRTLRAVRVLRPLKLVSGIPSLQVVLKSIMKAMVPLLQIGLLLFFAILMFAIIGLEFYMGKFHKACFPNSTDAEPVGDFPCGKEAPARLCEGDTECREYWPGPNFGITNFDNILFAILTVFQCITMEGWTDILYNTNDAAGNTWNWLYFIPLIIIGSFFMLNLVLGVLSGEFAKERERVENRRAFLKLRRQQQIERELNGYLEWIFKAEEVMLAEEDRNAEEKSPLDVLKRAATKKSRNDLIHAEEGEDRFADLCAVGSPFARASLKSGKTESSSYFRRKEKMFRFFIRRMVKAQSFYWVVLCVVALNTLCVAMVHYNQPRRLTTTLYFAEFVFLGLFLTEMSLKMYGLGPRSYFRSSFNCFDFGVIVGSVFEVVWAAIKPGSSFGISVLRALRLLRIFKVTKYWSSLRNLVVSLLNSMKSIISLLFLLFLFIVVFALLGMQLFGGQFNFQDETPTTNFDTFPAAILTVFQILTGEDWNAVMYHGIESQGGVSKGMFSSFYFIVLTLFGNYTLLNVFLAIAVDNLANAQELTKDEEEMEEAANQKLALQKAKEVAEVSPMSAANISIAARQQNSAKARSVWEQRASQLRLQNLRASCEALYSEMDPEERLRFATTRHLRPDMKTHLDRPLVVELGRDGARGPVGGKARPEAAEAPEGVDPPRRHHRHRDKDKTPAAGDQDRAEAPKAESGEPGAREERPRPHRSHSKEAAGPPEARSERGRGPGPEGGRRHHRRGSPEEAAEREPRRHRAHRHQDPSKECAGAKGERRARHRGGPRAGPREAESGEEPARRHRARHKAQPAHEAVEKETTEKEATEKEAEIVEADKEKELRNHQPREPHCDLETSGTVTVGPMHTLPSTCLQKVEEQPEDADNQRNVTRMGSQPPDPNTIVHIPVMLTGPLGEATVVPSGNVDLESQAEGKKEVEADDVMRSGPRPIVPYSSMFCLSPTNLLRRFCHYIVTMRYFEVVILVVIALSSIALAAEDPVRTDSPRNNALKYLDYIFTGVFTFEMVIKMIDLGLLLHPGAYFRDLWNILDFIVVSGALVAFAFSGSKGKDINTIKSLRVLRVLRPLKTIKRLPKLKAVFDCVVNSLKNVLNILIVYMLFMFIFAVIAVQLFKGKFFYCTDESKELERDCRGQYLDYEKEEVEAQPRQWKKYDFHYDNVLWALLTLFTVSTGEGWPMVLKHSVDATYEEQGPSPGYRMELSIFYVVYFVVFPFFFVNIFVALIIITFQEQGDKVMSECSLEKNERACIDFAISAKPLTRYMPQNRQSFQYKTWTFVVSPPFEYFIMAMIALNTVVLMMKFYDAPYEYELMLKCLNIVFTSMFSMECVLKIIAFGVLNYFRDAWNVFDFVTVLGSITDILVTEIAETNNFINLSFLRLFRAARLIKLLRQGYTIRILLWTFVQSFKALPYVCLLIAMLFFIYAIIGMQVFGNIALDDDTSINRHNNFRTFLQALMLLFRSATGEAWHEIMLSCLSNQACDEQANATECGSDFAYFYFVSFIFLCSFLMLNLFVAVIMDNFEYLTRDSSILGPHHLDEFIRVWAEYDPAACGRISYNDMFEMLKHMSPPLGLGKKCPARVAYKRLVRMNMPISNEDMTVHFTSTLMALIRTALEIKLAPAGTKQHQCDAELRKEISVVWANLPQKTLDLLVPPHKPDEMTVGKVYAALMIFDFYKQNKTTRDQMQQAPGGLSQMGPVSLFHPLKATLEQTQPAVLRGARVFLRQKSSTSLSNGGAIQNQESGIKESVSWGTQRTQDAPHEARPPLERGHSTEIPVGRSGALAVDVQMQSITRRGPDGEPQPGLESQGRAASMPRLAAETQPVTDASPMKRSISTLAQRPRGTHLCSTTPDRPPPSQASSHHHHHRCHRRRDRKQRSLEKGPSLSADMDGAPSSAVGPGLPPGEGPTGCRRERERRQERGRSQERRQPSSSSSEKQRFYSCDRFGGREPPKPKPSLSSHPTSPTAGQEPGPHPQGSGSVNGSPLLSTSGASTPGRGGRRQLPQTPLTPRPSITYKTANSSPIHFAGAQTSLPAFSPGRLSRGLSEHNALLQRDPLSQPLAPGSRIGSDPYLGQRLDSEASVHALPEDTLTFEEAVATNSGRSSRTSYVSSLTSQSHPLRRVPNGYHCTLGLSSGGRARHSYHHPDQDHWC
T1 sequence (P54284 whole entry partner): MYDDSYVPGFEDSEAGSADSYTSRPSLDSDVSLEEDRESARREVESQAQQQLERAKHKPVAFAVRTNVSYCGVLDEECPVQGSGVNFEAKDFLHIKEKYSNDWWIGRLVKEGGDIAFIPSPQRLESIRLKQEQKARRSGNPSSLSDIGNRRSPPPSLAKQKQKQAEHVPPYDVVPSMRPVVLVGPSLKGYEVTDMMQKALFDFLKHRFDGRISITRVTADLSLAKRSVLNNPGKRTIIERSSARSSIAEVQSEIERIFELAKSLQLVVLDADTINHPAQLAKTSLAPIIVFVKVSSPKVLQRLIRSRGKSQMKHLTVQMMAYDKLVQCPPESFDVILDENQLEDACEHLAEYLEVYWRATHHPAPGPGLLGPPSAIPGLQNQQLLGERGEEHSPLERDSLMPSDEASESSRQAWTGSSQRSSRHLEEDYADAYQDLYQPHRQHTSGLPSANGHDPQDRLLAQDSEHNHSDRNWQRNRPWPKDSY
T1 sequence (P54289 25-946 partner limits assumed): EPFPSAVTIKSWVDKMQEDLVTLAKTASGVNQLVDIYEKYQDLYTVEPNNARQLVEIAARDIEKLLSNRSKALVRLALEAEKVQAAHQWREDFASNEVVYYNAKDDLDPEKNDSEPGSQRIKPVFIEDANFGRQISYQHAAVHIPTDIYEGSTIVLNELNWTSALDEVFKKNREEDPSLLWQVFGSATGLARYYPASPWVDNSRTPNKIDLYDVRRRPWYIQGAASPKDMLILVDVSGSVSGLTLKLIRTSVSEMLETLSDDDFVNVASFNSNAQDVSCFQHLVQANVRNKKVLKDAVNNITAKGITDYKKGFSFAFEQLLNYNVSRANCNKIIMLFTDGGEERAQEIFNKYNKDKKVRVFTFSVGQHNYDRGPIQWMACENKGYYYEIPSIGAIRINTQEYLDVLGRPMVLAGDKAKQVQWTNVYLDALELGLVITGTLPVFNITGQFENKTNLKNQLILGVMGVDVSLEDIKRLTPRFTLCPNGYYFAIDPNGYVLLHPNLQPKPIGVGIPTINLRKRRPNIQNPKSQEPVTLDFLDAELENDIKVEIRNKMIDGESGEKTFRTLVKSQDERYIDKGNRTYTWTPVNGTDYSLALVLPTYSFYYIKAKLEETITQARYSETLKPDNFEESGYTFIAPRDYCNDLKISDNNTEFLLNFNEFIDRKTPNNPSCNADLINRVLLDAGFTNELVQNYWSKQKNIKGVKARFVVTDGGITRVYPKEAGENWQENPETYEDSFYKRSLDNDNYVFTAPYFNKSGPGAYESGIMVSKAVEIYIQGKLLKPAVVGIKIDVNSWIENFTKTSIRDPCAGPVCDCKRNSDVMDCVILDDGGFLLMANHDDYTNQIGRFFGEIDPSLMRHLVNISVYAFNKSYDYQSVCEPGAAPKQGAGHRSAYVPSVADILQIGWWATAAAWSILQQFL
T1 sequence (P54289 947-1103 partner limits assumed): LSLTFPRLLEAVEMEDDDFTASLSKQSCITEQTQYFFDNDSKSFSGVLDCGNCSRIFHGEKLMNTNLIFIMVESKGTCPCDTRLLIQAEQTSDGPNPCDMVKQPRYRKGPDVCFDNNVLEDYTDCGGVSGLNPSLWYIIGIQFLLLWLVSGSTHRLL

| Compound | IMR 32 % of Blockade @ 1 μM [1] | IC50 [2] | other results |
| --- | --- | --- | --- |
| CC(C)C[C@@H](C(=O)N[C@@H](Cc1ccc(OCc2ccccc2)cc1)C(=O)N1CCN(Cc2ccccc2)CC1)N(C)C1CCCCC1 (relative stereo) [Example 22, [S-(R*,R*)]-2-(Cyclohexyl-methyl-amino)-4-methyl-pentanoic acid [1-(4-benzyloxy-benzyl)-2-(4-benzyl-piperazin-1-yl)-2-oxo-ethyl]-amide] | 57% |  | IMR 32 % of Blockade @ 10 μM [1]: 87% |
| CC(C)C[C@@H](C(=O)N[C@@H](Cc1ccc(OCc2ccccc2)cc1)C(=O)NC1CCN(Cc2ccccc2)CC1)N(C)C1CCCCC1 (relative stereo) [Example 23, [S-(R*,R*)]-2-(Cyclohexyl-methyl-amino)-4-methyl-pentanoic acid [2-(4-benzyloxy-phenyl)-1-(1-benzyl-piperidin-4-ylcarbamoyl)-ethyl]-amide] | 53% |  | IMR 32 % of Blockade @ 3 μM [1]: 80% |
| CC(C)C[C@@H](C(=O)N[C@@H](Cc1ccc(OCc2ccccc2)cc1)C(=O)N1CCN(C)CC1)N(C)C1CCCCC1 (relative stereo) [Example 24, [S-(R*,R*)]-2-(Cyclohexyl-methyl-amino)4-methyl-pentanoic acid [1-(4-benzyloxy-benzyl)-2-(4-methyl-piperazin-1-yl)-2-oxo-ethyl]-amide] | 32% |  | IMR 32 % of Blockade @ 10 μM [1]: 84% |
| CC(C)C[C@@H](C(=O)N[C@@H](Cc1ccc(OCc2ccccc2)cc1)C(=O)N1CCCCC1)N(C)CC1CCCCC1 (relative stereo) [Example 26, [S-(R*,R*)]-2-(Cyclohexylmethyl-methyl-amino)-4-methyl-pentanoic acid [^2-(^4-benzyloxy-phenyl)-1-(piperidine-1-carbonyl)-ethyl]-amide] |  | 600 nM |  |
| CC(C)C[C@@H](C(=O)N[C@@H](Cc1ccc(OCc2ccccc2)cc1)C(=O)NCCN1CCCCC1)N(C)CC1CCCCC1 (relative stereo) [Example 27, [S-(R*,R*)]-2-(Cyclohexylmethyl-methyl-amino)-4-methyl-pentanoic acid [2-(4-benzyloxy-phenyl)-1-(2-piperidin-1-yl-ethylcarbamoyl)-ethyl]-amide] |  | 1300 nM |  |
| CC(C)C[C@@H](C(=O)N[C@@H](Cc1ccc(OCc2ccccc2)cc1)C(=O)N1CCN(Cc2ccccc2)CC1)N(C)CC1CCCCC1 (relative stereo) [Example 28, [S-(R*,R*)]-2-(Cyclohexylmethyl-methyl-amino)-4-methyl-pentanoic acid [1-(4-benzyloxy-benzyl)-2-(4-benzyl-piperazin-1-yl)-2-oxo-ethyl]-amide] |  | 500 nM |  |
| CC(C)C[C@@H](C(=O)N[C@@H](Cc1ccc(OCc2ccccc2)cc1)C(=O)NC1CCN(Cc2ccccc2)CC1)N(C)CC1CCCCC1 (relative stereo) [Example 29, [S-(R*,R*)]-2-(Cyclohexylmethyl-methyl-amino)-4-methyl-pentanoic acid [2-(4-benzyloxy-phenyl)-1-(1-benzyl-piperidin-4-ylcarbamoyl)-ethyl]-amide] |  | 600 nM |  |
| CC(C)C[C@H](NCc1ccc(C(C)(C)C)cc1)C(=O)N[C@@H](Cc1ccc(OCc2ccccc2)cc1)C(=O)OC(C)(C)C (relative stereo) [Example 32, [S-(R*,R*)]-3-(4-Benzyloxy-phenyl)-2-[2-(4-tert-butyl-benzylamino)-4-methyl-pentanoylamino]-propionic acid tert-butyl ester] |  | 250 nM |  |
| CC(C)C[C@H](NCc1ccccc1)C(=O)N[C@@H](Cc1ccc(OCc2ccccc2)cc1)C(=O)OC(C)(C)C (relative stereo) [Example 33, [S-(R*,R*)]-2-(2-Benzylamino-4-methyl-pentanoylamino)-3-(4-benzyloxy-phenyl)-propionic acid tert-butyl ester] | 52% |  | IMR 32 % of Blockade @ 10 μM [1]: 95% |
| CN[C@@H](CC(C)C)C(=O)N[C@@H](Cc1ccc(OCc2ccccc2)cc1)C(=O)NC(C)(C)C (relative stereo) [Example 35, [S-(R*,R*)]-4-Methyl-2-methylamino-pentanoic acid [2-(4-benzyloxy-phenyl)-1-tert-butylcarbamoyl-ethyl]-amide] |  | 2300 nM |  |
| CC(C)C[C@@H](C(=O)N[C@@H](Cc1ccc(OCc2ccccc2)cc1)C(=O)NC(C)(C)C)N(C)CCC(C)(C)C (relative stereo) [Example 36, [S-(R*,R*)]-2-[(3,3-Dimethyl-butyl)-methyl-amino]-4-methyl-pentanoic acid [2-(4-benzyloxy-phenyl)-1-tert-butylcarbamoyl-ethyl]-amide] |  | 400 nM |  |
| CC(C)C[C@@H](C(=O)N[C@@H](Cc1ccc(OCc2ccccc2)cc1)C(=O)NC(C)(C)C)N(C)Cc1ccc(N(C)C)cc1 (relative stereo) [Example 40, [S-(R*,R*)]-2-[(4-Dimethylamino-benzyl)-methyl-amino]-4-methyl-pentanoic acid [2-(4-benzyloxy-phenyl)-1-tert-butylcarbamoyl-ethyl]-amide] |  |  | IC50: 280 nM |
| CCC[C@@H](C(=O)N[C@@H](Cc1ccc(OCc2ccccc2)cc1)C(=O)NC(C)(C)C)N(C)CCC(C)C (relative stereo) [Example 46, [S-(R*,R*)]-4-Methyl-2-[methyl-(3-methyl-butyl)-amino]-butyric acid [2-(4-benzyloxy-phenyl)-1-tert-butylcarbamoyl-ethyl]-amide] |  |  | IMR 32 % of Blockade @ 0.3 μM (0.3 μM, IMR-32 cells, 5 μM nitrendipine): 36%; IMR 32 % of Blockade @ 3 μM [1]: 74% |

Further lines, with some results ahead:

| IMR 32 % of Blockade @ 1 μM [1] | IC50 [2] | Compound | other results |
| --- | --- | --- | --- |
| 23% |  | CC(C)C[C@@H](C(=O)N[C@@H](Cc1ccc(OCc2ccccc2)cc1)C(=O)NC(C)(C)C)N(C)C1CCC(C(C)(C)C)CC1 (relative stereo) [Example 38, [S-(R*,R*)]-2-[(4-tert-Butyl-cyclohexyl)-methyl-amino]-4-methyl-pentanoic acid [2-(4-benzyloxy-phenyl)-1-tert-butylcarbamoyl-ethyl]-amide] |  |
|  | 390 nM | CC(C)C[C@@H](C(=O)N[C@@H](Cc1ccc(OCc2ccccc2)cc1)C(=O)NC(C)(C)C)N(C)C1CCC(C)CC1 (relative stereo) [Example 39, [S-(R*,R*)]-4-Methyl-2-[methyl-(4-methyl-cyclohexyl)-amino]-pentanoic acid [2-(4-benzyloxy-phenyl)-1-tert-butylcarbamoyl-ethyl]-amide] |  |
|  | 280 nM | CCCCN(C)[C@@H](CC(C)C)C(=O)N[C@@H](Cc1ccc(OCc2ccccc2)cc1)C(=O)NC(C)(C)C (relative stereo) [Example 41, [S-(R*,R*)]-2-(Butyl-methyl-amino)-4-methyl-pentanoic acid [2-(4-benzyloxy-phenyl)-1-tert-butylcarbamoyl-ethyl]-amide] |  |
|  | 380 nM | CC(C)C[C@@H](C(=O)N[C@@H](Cc1ccc(OCc2ccccc2)cc1)C(=O)NC(C)(C)C)N(C)CC(C)C (relative stereo) [Example 42, [S-(R*,R*)]-2-(Isobutyl-methyl-amino)-4-methyl-pentanoic acid [2-(4-benzyloxy-phenyl)-1-tert-butylcarbamoyl-ethyl]-amide] |  |
| 51% |  | CN[C@@H](CC(C)C)C(=O)N[C@@H](Cc1ccc(OCc2ccccc2)cc1)C(=O)N1CCN(Cc2ccccc2)CC1 (relative stereo) [Example 43, [S-(R*,R*)]-4-Methyl-2-methylamino-pentanoic acid [1-(4-benzyloxy-benzyl)-2-(4-benzyl-piperazin-1-yl)-2-oxo-ethyl]-amide] | IMR 32 % of Blockade @ 10 μM [1]: 96% |
|  | 660 nM | CC(C)C[C@H](N[C@@H]1C=CCCC1)C(=O)NC(Cc1ccc(OCc2ccccc2)cc1)C(=O)NC(C)(C)C (relative stereo) [Example 49, [S-(R*,R*)]-2-(Cyclohex-2-enylamino)-4-methyl-pentanoic acid [2-(4-benzyloxy-phenyl)-1-tert-butylcarbamoyl-ethyl]-amide] |  |
|  | 1300 nM | CC(C)=CCN(C)[C@@H](CC(C)C)C(=O)N[C@@H](Cc1ccc(OCc2ccccc2)cc1)C(=O)NC(C)(C)C (relative stereo) [Example 51, [S-(R*,R*)]4-Methyl-2-[methyl-(3-methyl-but-2-enyl)-amino]-pentanoic acid [2-(4-benzyloxy-phenyl)-1-tert-butylcarbamoyl-ethyl]-amide] |  |
